Test results published in patent US10793914B2, “Cancer-related biological materials in microvesicles” (THE GENERAL HOSPITAL CORPORATION, priority 2010, dated 2020).

Tested on: medulloblastoma D384 cells
Test: exoDNA yield in microvesicles after inhibition of DNA replication with L-mimosine
Type: cell-based, human
Settings: D384 cells treated with L-mimosine (200, 400 and 600 μM), microvesicles isolated from medium after 48 hrs, ssDNA yield compared to mock treated cells
Experimental: D384 cells were seeded in 6-well plates and treated with increasing dosages of L-mimosine (200, 400 and 600 μM) or mock treated. Microvesicles were isolated from the medium after 48 hrs and ssDNA was extracted using the Qiagen PCR purification kit. Single-stranded DNA yields were quantified using the Bioanalyzer and the yields were compared to mock treated cells (normalized to 1.0).
We used L-mimosine to inhibit DNA replication and examined whether the inhibition affected the yield of exoDNA. If the exoDNA yield is decreased after inhibition, it is very likely that exoDNA may contain fragments of genomic DNA.
Specifically, D384 cells were plated on 6-well plates (2×10^6 cells/well) and treated with increasing amounts (200, 400 and 600 μM) of L-mimosine (Sigma-Aldrich, St. Louis, Mo.) which is an inhibitor of DNA replication. The drug was added at one time point and 48 hrs after, the media was collected and processed for the isolation of microvesicles. Cell viability was assessed by cell count using the Countess Automated Cell Counter (Invitogen). SsDNA yields are normalized to one.

Compound: N[C@@H](Cn1ccc(=O)c(O)c1)C(=O)O [L-mimosine]
- decrease of exoDNA yield in microvesicles: about 50%
